Test results reported in patent US5604234A, “Substituted thiol macrolactam immunomodulators” (Abbott Laboratories, priority 1995, dated 1997).

System: human mixed lymphocyte reaction (MLR)
Test: human mixed lymphocyte reaction (MLR), serum free variation
Format: cell-based
Conditions: serum-free medium AIM V, Table 3
Experimental: In vitro Assay of Biological Activity (Serum Free MLR)
The in viitro immunosuppressant activity of the compounds of the present invention can also be determined using a variation of the human mixed lymphocyte reaction (MLR) assay described by Kino, T. et al. in Transplantation Proceedings, XIX(5):36-39, Suppl. 6 (1987). In this assay, the cell culture was performed in a serum-free medium, AIM V (GibcoBRL Life Technologies, Grand Island, N.Y.), instead of the usual RPMI 1640 plus 10% heat-inactivated fetal bovine serum medium. The final cell concentrations of the responder and stimulator peripheral blood mononuclear cells were, respectively, 5×10^5/mL and 2×10^6/mL of cells pooled from four donors.

Row | IC50 (Homo sapiens, Lymphocyte) | IC50 | SMILES
1 | 24.2 nM | – | CCC1C=C(C)CC(C)CC(OC)C2OC(O)(C(=O)C(=O)N3CCCCC3C(=O)OC(C(C)=CC3CCC(SCC(=O)OCCN(C)C)C(OC)C3)C(C)C(O)CC1=O)C(C)CC2OC (centres unmarked) [Example 36]
2 | 16.4 nM | – | CCC1C=C(C)CC(C)CC(OC)C2OC(O)(C(=O)C(=O)N3CCCCC3C(=O)OC(C(C)=CC3CCC(SCC(=O)OCCOCc4ccccc4)C(OC)C3)C(C)C(O)CC1=O)C(C)CC2OC (centres unmarked) [Example 37]
3 | 7.5 nM | – | CCC1C=C(C)CC(C)CC(OC)C2OC(O)(C(=O)C(=O)N3CCCCC3C(=O)OC(C(C)=CC3CCC(SCC(=O)NO)C(OC)C3)C(C)C(O)CC1=O)C(C)CC2OC (centres unmarked) [Example 38]
4 | 4.8 nM | – | CCC1C=C(C)CC(C)CC(OC)C2OC(O)(C(=O)C(=O)N3CCCCC3C(=O)OC(C(C)=CC3CCC(SCC(=O)N(C)O)C(OC)C3)C(C)C(O)CC1=O)C(C)CC2OC (centres unmarked) [Example 39]
5 | 14.9 nM | – | CCC1C=C(C)CC(C)CC(OC)C2OC(O)(C(=O)C(=O)N3CCCCC3C(=O)OC(C(C)=CC3CCC(SCC(C)C(=O)OC)C(OC)C3)C(C)C(O)CC1=O)C(C)CC2OC (centres unmarked) [Example 40]
6 | 46.4 nM | – | CCOC(=O)C(C)CSC1CCC(C=C(C)C2OC(=O)C3CCCCN3C(=O)C(=O)C3(O)OC(C(OC)CC(C)CC(C)=CC(CC)C(=O)CC(O)C2C)C(OC)CC3C)CC1OC (centres unmarked) [Example 41]
7 | 63.4 nM | – | CCC1C=C(C)CC(C)CC(OC)C2OC(O)(C(=O)C(=O)N3CCCCC3C(=O)OC(C(C)=CC3CCC(SCC(C)C(=O)OCc4ccccc4)C(OC)C3)C(C)C(O)CC1=O)C(C)CC2OC (centres unmarked) [Example 42]
8 | 22.6 nM | – | CC[C@@H]1/C=C(\C)C[C@H](C)C[C@H](OC)[C@H]2O[C@@](O)(C(=O)C(=O)N3CCCC[C@H]3C(=O)O[C@H](/C(C)=C/[C@@H]3CC[C@H](SCC(C)C(=O)O)[C@H](OC)C3)[C@H](C)[C@@H](O)CC1=O)[C@H](C)C[C@@H]2OC (some centres unmarked) [Example 43]
9 | 0.9 nM | – | CC[C@@H]1/C=C(\C)C[C@H](C)C[C@H](OC)[C@H]2O[C@@](O)(C(=O)C(=O)N3CCCC[C@H]3C(=O)O[C@H](/C(C)=C/[C@@H]3CC[C@H]([S+]([O-])c4ccc(O)cc4)[C@H](OC)C3)[C@H](C)[C@@H](O)CC1=O)[C@H](C)C[C@@H]2OC (some centres unmarked) [Example 48]
10 | 2.5 nM | – | CC[C@@H]1/C=C(\C)C[C@H](C)C[C@H](OC)[C@H]2O[C@@](O)(C(=O)C(=O)N3CCCC[C@H]3C(=O)O[C@H](/C(C)=C/[C@@H]3CC[C@H](S(=O)(=O)c4ccc(O)cc4)[C@H](OC)C3)[C@H](C)[C@@H](O)CC1=O)[C@H](C)C[C@@H]2OC [Example 49]
11 | 0.24 nM | – | CC[C@@H]1/C=C(\C)C[C@H](C)C[C@H](OC)[C@H]2O[C@@](O)(C(=O)C(=O)N3CCCC[C@H]3C(=O)O[C@H](/C(C)=C/[C@@H]3CC[C@H]([S+]([O-])CCO)[C@H](OC)C3)[C@H](C)[C@@H](O)CC1=O)[C@H](C)C[C@@H]2OC (some centres unmarked) [Example 50]
12 | 0.17 nM | – | CC[C@@H]1/C=C(\C)C[C@H](C)C[C@H](OC)[C@H]2O[C@@](O)(C(=O)C(=O)N3CCCC[C@H]3C(=O)O[C@H](/C(C)=C/[C@@H]3CC[C@H](S(=O)(=O)CCO)[C@H](OC)C3)[C@H](C)[C@@H](O)CC1=O)[C@H](C)C[C@@H]2OC [Example 51]
13 | 1.8 nM | – | CC[C@@H]1/C=C(\C)C[C@H](C)C[C@H](OC)[C@H]2O[C@@](O)(C(=O)C(=O)N3CCCC[C@H]3C(=O)O[C@H](/C(C)=C/[C@@H]3CC[C@H]([S+]([O-])CCCO)[C@H](OC)C3)[C@H](C)[C@@H](O)CC1=O)[C@H](C)C[C@@H]2OC (some centres unmarked) [Example 52]
14 | 0.04 nM | – | CC[C@@H]1/C=C(\C)C[C@H](C)C[C@H](OC)[C@H]2O[C@@](O)(C(=O)C(=O)N3CCCC[C@H]3C(=O)O[C@H](/C(C)=C/[C@@H]3CC[C@H](S(=O)(=O)CCCO)[C@H](OC)C3)[C@H](C)[C@@H](O)CC1=O)[C@H](C)C[C@@H]2OC [Example 53]
15 | 8.1 nM | – | CC[C@@H]1/C=C(\C)C[C@H](C)C[C@H](OC)[C@H]2O[C@@](O)(C(=O)C(=O)N3CCCC[C@H]3C(=O)O[C@H](/C(C)=C/[C@@H]3CC[C@H]([S+]([O-])CC(=O)OCc4ccccc4)[C@H](OC)C3)[C@H](C)[C@@H](O)CC1=O)[C@H](C)C[C@@H]2OC (some centres unmarked) [Example 55]
16 | 8.1 nM | – | CC[C@@H]1/C=C(\C)C[C@H](C)C[C@H](OC)[C@H]2O[C@@](O)(C(=O)C(=O)N3CCCC[C@H]3C(=O)O[C@H](/C(C)=C/[C@@H]3CC[C@H](S(=O)(=O)CC(=O)OCc4ccccc4)[C@H](OC)C3)[C@H](C)[C@@H](O)CC1=O)[C@H](C)C[C@@H]2OC [Example 56]

Row | IC50 (Homo sapiens, Lymphocyte) | IC50 | SMILES
17 | 2 nM | – | CC[C@@H]1/C=C(\C)C[C@H](C)C[C@H](OC)[C@H]2O[C@@](O)(C(=O)C(=O)N3CCCC[C@H]3C(=O)O[C@H](/C(C)=C/[C@@H]3CC[C@H](S(=O)(=O)CC(=O)OC)[C@H](OC)C3)[C@H](C)[C@@H](O)CC1=O)[C@H](C)C[C@@H]2OC [Example 57]
18 | 2.1 nM | – | CC[C@@H]1/C=C(\C)C[C@H](C)C[C@H](OC)[C@H]2O[C@@](O)(C(=O)C(=O)N3CCCC[C@H]3C(=O)O[C@H](/C(C)=C/[C@@H]3CC[C@H](S(=O)(=O)CC(=O)OC(C)(C)C)[C@H](OC)C3)[C@H](C)[C@@H](O)CC1=O)[C@H](C)C[C@@H]2OC [Example 58]
19 | 7.5 nM | – | CCOC(=O)CS(=O)(=O)[C@H]1CC[C@@H](/C=C(\C)[C@H]2OC(=O)[C@@H]3CCCCN3C(=O)C(=O)[C@]3(O)O[C@H]([C@@H](OC)C[C@@H](C)C/C(C)=C/[C@@H](CC)C(=O)C[C@H](O)[C@H]2C)[C@@H](OC)C[C@H]3C)C[C@H]1OC [Example 59]
20 | 6.1 nM | – | CCOC(=O)CC[S+]([O-])[C@H]1CC[C@@H](/C=C(\C)[C@H]2OC(=O)[C@@H]3CCCCN3C(=O)C(=O)[C@]3(O)O[C@H]([C@@H](OC)C[C@@H](C)C/C(C)=C/[C@@H](CC)C(=O)C[C@H](O)[C@H]2C)[C@@H](OC)C[C@H]3C)C[C@H]1OC (some centres unmarked) [Example 60]
21 | 2.5 nM | – | CCOC(=O)CCS(=O)(=O)[C@H]1CC[C@@H](/C=C(\C)[C@H]2OC(=O)[C@@H]3CCCCN3C(=O)C(=O)[C@]3(O)O[C@H]([C@@H](OC)C[C@@H](C)C/C(C)=C/[C@@H](CC)C(=O)C[C@H](O)[C@H]2C)[C@@H](OC)C[C@H]3C)C[C@H]1OC [Example 61]
22 | 15 nM | – | CC[C@@H]1/C=C(\C)C[C@H](C)C[C@H](OC)[C@H]2O[C@@](O)(C(=O)C(=O)N3CCCC[C@H]3C(=O)O[C@H](/C(C)=C/[C@@H]3CC[C@H]([S+]([O-])CCC(=O)OCc4ccccc4)[C@H](OC)C3)[C@H](C)[C@@H](O)CC1=O)[C@H](C)C[C@@H]2OC (some centres unmarked) [Example 63]
23 | 9.2 nM | – | CC[C@@H]1/C=C(\C)C[C@H](C)C[C@H](OC)[C@H]2O[C@@](O)(C(=O)C(=O)N3CCCC[C@H]3C(=O)O[C@H](/C(C)=C/[C@@H]3CC[C@H](S(=O)(=O)CCC(=O)OCc4ccccc4)[C@H](OC)C3)[C@H](C)[C@@H](O)CC1=O)[C@H](C)C[C@@H]2OC [Example 64]
24 | 32.2 nM | – | CC[C@@H]1/C=C(\C)C[C@H](C)C[C@H](OC)[C@H]2O[C@@](O)(C(=O)C(=O)N3CCCC[C@H]3C(=O)O[C@H](/C(C)=C/[C@@H]3CC[C@H]([S+]([O-])CCC(=O)N(O)C(C)C)[C@H](OC)C3)[C@H](C)[C@@H](O)CC1=O)[C@H](C)C[C@@H]2OC (some centres unmarked) [Example 72]
25 | 57.7 nM | – | CC[C@@H]1/C=C(\C)C[C@H](C)C[C@H](OC)[C@H]2O[C@@](O)(C(=O)C(=O)N3CCCC[C@H]3C(=O)O[C@H](/C(C)=C/[C@@H]3CC[C@H]([S+]([O-])CC(=O)O)[C@H](OC)C3)[C@H](C)[C@@H](O)CC1=O)[C@H](C)C[C@@H]2OC (some centres unmarked) [Example 74]
26 | 30 nM | – | CC[C@@H]1/C=C(\C)C[C@H](C)C[C@H](OC)[C@H]2O[C@@](O)(C(=O)C(=O)N3CCCC[C@H]3C(=O)O[C@H](/C(C)=C/[C@@H]3CC[C@H](S(=O)(=O)CCC(=O)O)[C@H](OC)C3)[C@H](C)[C@@H](O)CC1=O)[C@H](C)C[C@@H]2OC [Example 78]
27 | 14 nM | – | C=CCS[C@H]1CC[C@@H](/C=C(\C)[C@H]2OC(=O)[C@@H]3CCCCN3C(=O)C(=O)[C@]3(O)O[C@H]([C@@H](OC)C[C@@H](C)C/C(C)=C/[C@@H](CC)C(=O)C[C@H](O)[C@H]2C)[C@@H](OC)C[C@H]3C)C[C@H]1OC [Example 79]
28 | 4.3 nM | – | CC[C@@H]1/C=C(\C)C[C@H](C)C[C@H](OC)[C@H]2O[C@@](O)(C(=O)C(=O)N3CCCC[C@H]3C(=O)O[C@H](/C(C)=C/[C@@H]3CC[C@H](SCC(C)=O)[C@H](OC)C3)[C@H](C)[C@@H](O)CC1=O)[C@H](C)C[C@@H]2OC [Example 80]
29 | 1.3 nM | – | CC[C@@H]1/C=C(\C)C[C@H](C)C[C@H](OC)[C@H]2O[C@@](O)(C(=O)C(=O)N3CCCC[C@H]3C(=O)O[C@H](/C(C)=C/[C@@H]3CC[C@H](SCC(C)=NNC(N)=O)[C@H](OC)C3)[C@H](C)[C@@H](O)CC1=O)[C@H](C)C[C@@H]2OC [Example 81A]
30 | – | 1.6 nM | CC[C@@H]1/C=C(\C)C[C@H](C)C[C@H](OC)[C@H]2O[C@@](O)(C(=O)C(=O)N3CCCC[C@H]3C(=O)O[C@H](/C(C)=C/[C@@H]3CC[C@H](SCC(C)=NNC(N)=O)[C@H](OC)C3)[C@H](C)[C@@H](O)CC1=O)[C@H](C)C[C@@H]2OC [Example 81B]
31 | 64 nM | – | CC[C@@H]1/C=C(\C)C[C@H](C)C[C@H](OC)[C@H]2O[C@@](O)(C(=O)C(=O)N3CCCC[C@H]3C(=O)O[C@H](/C(C)=C/[C@@H]3CC[C@H](SCC(C)=NOC)[C@H](OC)C3)[C@H](C)[C@@H](O)CC1=O)[C@H](C)C[C@@H]2OC [Example 82]
32 | 70 nM | – | CC[C@@H]1/C=C(\C)C[C@H](C)C[C@H](OC)[C@H]2O[C@@](O)(C(=O)C(=O)N3CCCC[C@H]3C(=O)O[C@H](/C(C)=C/[C@@H]3CC[C@H](SCC(C)=NO)[C@H](OC)C3)[C@H](C)[C@@H](O)CC1=O)[C@H](C)C[C@@H]2OC [Example 83A]
